# Reference: US6642365B1, “Anti-(retro)viral conjugates of saccharides and acetamidino or guanidino compounds” (Yeda Research and Development Co. Ltd., priority 2001, dated 2003)
# Tests used:
# TAR RNA = experiment: Gel-shift binding to TAR RNA; parameters: species or system HIV-1; settings: for Kd: CD50 normalized to the reported conditions (Calnan et al., 1991 b), read-out: apparent Kd; for effect of ten-fold excess of yeast tRNA on complex formation with TAR: ten-fold excess of tRNA (100 ng per lane)
# Protocol: The model Tat peptide (R52: […]) was prepared by the Weizmann Institute Chemical Services and was purified by reverse phase HPLC (C-18) (Lapidot et al., 1995). […] The RNA was transcriptionally labeled with α-^32P UTP, purified on a 12% polyacrylamide/7M urea gel (19:1 acrylamide:bis-acrylamide) and was eluted from the gel by 0.5M ammonium acetate, 10 mM magnesium acetate, 1 mM EDTA and 0.1% SDS. The sample was subjected to phenol extraction and the RNA was precipitated from 70% ethanol. Purified RNA was dissolved in diethyl pyrocarbonate-treated water (DEPC water), its concentration was determined by UV absorption at 260 nm and the specific radioactivity was determined by scintillation counting on a LS 1701 “Bruker” counter.
# To study the affinity of the test compounds to TAR, gel-shift and gel-shift inhibition experiments were performed. The binding reaction mixtures (20 μl) contained ^32P-labeled TAR (18-44) RNA oligonucleotide (3-6 nM) and Tat R52 peptide (35-75 nM) in a binding buffer (10 mM Tris-HCl pH 7.5, 70 mM NaCl, 0.2 mM EDTA and 5% glycerol). The reaction mixtures were incubated for 10 minutes on ice and resolved by electrophoresis on a 10% non-denaturing polyacrylamide gel (40:1 acrylamide:bis-acrylamide) at 200V, for 3 h at 4° C. Gels were dried and visualized by autoradiography. Quantitations were obtained by optical densitometry of films. Alternatively, results were visualized by exposing the wet gels to Fuji phosphoimager plates, which were read on a “Storm 820” (Molecular Dynamics) phosphoimager. […]
# Binding of aminoglycoside-arginine conjugates (AAC) to TAR RNA was measured by adding varying concentrations of each conjugate to reaction mixtures (20 μl) which contained 12 nM ^32P-labeled TAR RNA. The reactions were analyzed as described above.
# [1] = tested on: rG15, rG15-rC15 duplex and truncated TAR RNA sequences; experiment: Gel-shift binding to short RNA oligonucleotides (specificity); settings: micromolar concentration range; data not shown
# [2] = tested on: equine infectious anemia virus (EIAV); experiment: Antiviral activity in EIAV-infected ED fibroblasts; assay type: cell-based; settings: for EIAV replication in ED cells (FIG. 8): R3G at 12.5 and 25 μM, R4K at 50 and 100 μM, 10 pfu per cell
# Protocol: Both equine dermal fibroblasts (ED) and Equine Infectious Anemia Virus (EIAV), Wyoming isolate (Malmquist et al., 1973) were gifts from Profs. A. Yaniv and A. Gazit, from the Sackler Medical School of the Tel-Aviv University, Israel. ED cells were plated on plastic 6-well tissue culture plates (Nunclone) at density of […] per well in 2 ml of DMEM/10% FCS (fetal calf serum). The medium was removed after 12-20 hours and the cells were inoculated for 2 hours with 0.5 ml DMEM/10% FCS containing 5×10^6 pfu (plaque forming units) of EIAV and 10 μg/ml of polybrene (hexadimetrine bromide, Sigma) (Carpenter and Chesebro, 1989). Following the incubation, another 2.5 ml of DMEM/10% FCS was added to each well. […] Every […], 1.2 ml samples of the medium were collected and replaced with same amount of medium, containing radioactive uridine and the tested. The samples were clarified from cell debris by spinning at 12000 rpm for 5 minutes on the Eppendorf centrifuge. Viral particles from the clarified supernatants were collected by ultracentrifugation at 75000 rpm, 4° C. on the Beckman TL 100 centrifuge using TLA 100.2 rotor (Cheevers et al., 1977). The supernatants were carefully discarded and the pellet was resuspended in 200 μl of 1% SDS/5% Tritone X-100, mixed with 1 ml Ultima Gold scintillation liquid (Packard) and counted on LS 1701 Bruker scintillation counter. Typical duration of the experiment was 15 days; EIAV growth curves in the presence of various concentrations of the conjugates in the medium were obtained. Development of the cytopathic effect (cpe) in the infected ED cells was monitored by light microscopy.
# Equine infectious anemia virus (EIAV) of Wyoming strain is adapted to grow in equine dermal fibroblasts (ED), without damaging them with a titer of 1 μfu per cell (Malmquist virus). […] In the absence of inhibitors, EIAV proliferated in the ED cells reaching a plato 9-12 days after infection (FIG. 8). […] Development of cpe started 10-12 days after infection, reaching a maximum on days 15-17, followed by rapid cell death and exfoliation from the plastic bottom of the well.
# [3] = tested on: HIV-1 AZT-resistant clinical isolate AOM; experiment: Anti-HIV assay, MTT; assay type: cell-based
# Protocol: The cells were infected by incubation with different titers of the HIV-1 strains for 2 hrs at 37° C. in the presence or absence of the AAC of the invention. Then the cells were washed from the virus by centrifugation at 400 g and the supernatants were discarded. The cells were resuspended in culture medium, supplemented with different concentrations of the test compounds. The cells were allowed to proliferate for 5 days, the number of viable cells was quantified by a tetrazolium-based colorimetric method (CellTiter 96® AQueous One solution Cell Proliferation Assay, Promega).
# HIV-1 NL4-3 = experiment: Virus-binding assay, p24 antigen bound to MT-4 cells; assay type: cell-based; settings: 1 hour at 37° C.; dose dependent
# Protocol: MT4 cells (5×10^5) were incubated with supernatant containing 1×10^5 pg of p24 antigen of wild type HIV-1 in the presence of different concentrations of the test compound. One hour after infection, cells were washed 3 times with PBS and p24 antigen bound to the cells was determined by a commercial ELISA test (Coulter, Spain).
# CXCR4 = CXCR4 (Homo sapiens, UniProt P61073); experiment: Inhibition of anti-CXCR4 mAb (12G5) binding, flow cytometry, PHA-activated PBMC; parameters: endogenous in cells; settings: for IC50: read-out: IC50-12G5 PMBC
# Protocol: Measurement of chemokine receptors CXCR4, CCR5 and the CD4 receptor on phytohemagglutinin (PHA)-activated PBMC was performed by flow cytometry analysis. Briefly, 0.5×10^6 cells were washed in ice-cold phosphate-buffered saline (PBS) and incubated for 30 minutes at 4÷C. with fluorescent labelled mAb 12G5 and 2D7 and Leu3a (Becton Dickinson, San Jose, Calif.) or with isotype control mAbs in the presence or absence of the test compound. Then, the cells were washed with ice-cold PBS and were fixed in PBS containing 1% formaldehyde. For each sample, 10,000 events were analysed in a FACScalibur™ system (Becton Dickinson). Data were acquired and analysed with CellQuest™ software (Becton Dickinson).
# CCR5 = CCR5 (Homo sapiens, UniProt P51681); experiment: RANTES-induced intracellular calcium signal in THP-1, CCR5+ cells; settings: data not shown
# Sequence of CCR5 (P51681 whole entry): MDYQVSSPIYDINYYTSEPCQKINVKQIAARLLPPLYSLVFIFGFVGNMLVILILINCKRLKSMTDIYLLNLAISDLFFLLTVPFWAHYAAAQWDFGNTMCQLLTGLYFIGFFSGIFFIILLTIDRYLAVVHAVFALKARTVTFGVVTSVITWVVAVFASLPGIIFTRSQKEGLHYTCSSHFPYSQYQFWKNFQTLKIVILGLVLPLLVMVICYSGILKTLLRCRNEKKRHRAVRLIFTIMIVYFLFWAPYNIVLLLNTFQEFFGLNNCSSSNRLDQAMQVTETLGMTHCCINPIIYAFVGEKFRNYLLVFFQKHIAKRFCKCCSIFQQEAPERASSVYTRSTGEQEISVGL
# Sequence of CXCR4 (P61073 whole entry): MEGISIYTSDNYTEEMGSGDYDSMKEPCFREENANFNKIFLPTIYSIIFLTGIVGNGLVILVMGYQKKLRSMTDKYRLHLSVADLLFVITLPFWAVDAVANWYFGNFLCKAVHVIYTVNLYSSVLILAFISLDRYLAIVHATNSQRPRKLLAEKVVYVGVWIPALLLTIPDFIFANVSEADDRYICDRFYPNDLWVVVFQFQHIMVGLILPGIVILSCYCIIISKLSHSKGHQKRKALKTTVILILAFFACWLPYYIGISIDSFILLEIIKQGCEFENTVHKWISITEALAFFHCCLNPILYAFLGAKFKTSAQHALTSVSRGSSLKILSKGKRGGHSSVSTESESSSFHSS
Compound,CD50 (TAR RNA; 12 nM 32P-labeled TAR) [nM],"CD50 (TAR RNA; 50% binding, TAR RNA 12 nM) [nM]",Kd (TAR RNA) [nM],effect of ten-fold excess of yeast tRNA on complex formation with TAR (TAR RNA),binding to short RNA oligonucleotides [1],EIAV replication in ED cells (FIG. 8) [2],EC50 [3] [nM],binding of HIV-1 NL4-3 to MT-4 cells (HIV-1 NL4-3),IC50 (CXCR4) [nM],intracellular Ca2+ signal induced by RANTES (CCR5),"phenotype of EIAV-infected ED cells ([2]; 25 μM, day 13-15)","inhibition of cpe development ([2]; 25 and 50 μM, after 13-15 days)","viral titer compared to control ([2]; added during cpe onset (day 12-13), read at day 15)",binding of 12G5 mAb to PHA-activated PBMC (CXCR4; 5 μM)
"N=C(N)NCCCC(N)C(=O)NCC1OC(OC2C(NC(=O)C(N)CCCNC(=N)N)CC(NC(=O)C(N)CCCNC(=N)N)C(OC3OC(CO)C(O)C(NC(=O)C(N)CCCNC(=N)N)C3O)C2O)C(O)C(O)C1O (centres unmarked) [R4K, Tetraargininamido-kanamycin A conjugate]",2500,2500,416,do not inhibit the binding,did not display any binding,inhibited the viral growth,67000,inhibit the binding,2200,did not inhibit,,,,
Triargininamido-gentamicin conjugate [R3G],,~500,83,do not inhibit the binding,did not display any binding,inhibited the viral growth,16000,inhibit the binding,2700,did not inhibit,preserved normal fibroblast phenotype,noticeable inhibition of the cpe development,decreased at least twice,suppressed
